Experiments:
human A3AR = target: T1, human A3AR (Homo sapiens, UniProt P0DMS8); assay type: binding; details: [^125I]MRS5127 0.2 nM, 2 h room temperature, Cheng-Prusoff
T1 sequence (P0DMS8 1-318): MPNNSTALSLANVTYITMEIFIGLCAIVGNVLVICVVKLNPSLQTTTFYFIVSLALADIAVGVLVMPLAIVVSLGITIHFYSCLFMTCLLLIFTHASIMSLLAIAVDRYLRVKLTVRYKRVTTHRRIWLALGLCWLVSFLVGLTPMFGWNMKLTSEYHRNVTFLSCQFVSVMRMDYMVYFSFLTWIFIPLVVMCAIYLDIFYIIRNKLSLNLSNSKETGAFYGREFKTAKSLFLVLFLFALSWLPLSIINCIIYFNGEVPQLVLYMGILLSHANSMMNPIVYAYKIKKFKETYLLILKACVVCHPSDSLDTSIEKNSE

dog A3AR = target: T2, dog A3AR (Canis lupus familiaris, UniProt Q28309); test: cAMP accumulation assay, HEK 293 cells expressing dog A3AR; assay type: cell-based; details: forskolin 10 μM, 15 min, Ro 20-1724 20 μM
T2 sequence (Q28309 1-314): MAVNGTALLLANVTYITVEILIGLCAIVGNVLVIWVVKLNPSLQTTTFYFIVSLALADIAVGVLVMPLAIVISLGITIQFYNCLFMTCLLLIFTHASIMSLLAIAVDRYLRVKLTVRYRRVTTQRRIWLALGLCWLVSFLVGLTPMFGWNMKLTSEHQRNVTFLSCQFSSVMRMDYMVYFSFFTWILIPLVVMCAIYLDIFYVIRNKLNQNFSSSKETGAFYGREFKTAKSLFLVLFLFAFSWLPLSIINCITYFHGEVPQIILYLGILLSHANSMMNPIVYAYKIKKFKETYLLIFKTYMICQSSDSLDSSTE

hA3AR [1] = details: cited from earlier work
mouse A2AAR = mouse A2AAR (Mus musculus, UniProt Q60613); test: Competition binding of MRS5127 at mouse A2AAR; details: [^3H]CGS21680 10 nM, HEK 293 membranes
mouse A2AAR, sequence (Q60613 whole entry): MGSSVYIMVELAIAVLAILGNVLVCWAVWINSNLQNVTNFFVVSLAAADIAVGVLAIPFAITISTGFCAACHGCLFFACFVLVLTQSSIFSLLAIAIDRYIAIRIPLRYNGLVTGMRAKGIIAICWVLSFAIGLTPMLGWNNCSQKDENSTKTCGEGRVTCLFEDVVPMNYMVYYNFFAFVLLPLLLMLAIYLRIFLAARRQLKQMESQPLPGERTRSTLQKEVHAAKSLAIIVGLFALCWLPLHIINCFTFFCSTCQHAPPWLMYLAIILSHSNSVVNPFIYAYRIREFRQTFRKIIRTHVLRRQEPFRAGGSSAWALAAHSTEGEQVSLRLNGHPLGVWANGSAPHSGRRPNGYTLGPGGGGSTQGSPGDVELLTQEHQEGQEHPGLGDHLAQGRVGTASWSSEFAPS

mA1AR = target: T3, mA1AR (Mus musculus, UniProt Q60612); test: Competition binding of MRS5127 at mouse A1AR
T3 sequence (Q60612 1-326): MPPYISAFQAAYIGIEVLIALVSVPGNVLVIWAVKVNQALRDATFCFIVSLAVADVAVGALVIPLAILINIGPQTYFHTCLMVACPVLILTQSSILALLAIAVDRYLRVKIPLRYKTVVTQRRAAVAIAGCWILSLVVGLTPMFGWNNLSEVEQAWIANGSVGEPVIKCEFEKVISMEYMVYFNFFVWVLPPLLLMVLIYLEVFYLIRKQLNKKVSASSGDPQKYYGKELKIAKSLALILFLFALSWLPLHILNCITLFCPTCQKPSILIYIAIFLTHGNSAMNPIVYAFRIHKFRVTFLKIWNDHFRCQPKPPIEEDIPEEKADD

mouse A3AR = target: T4, mouse A3AR (Mus musculus, UniProt Q61618); test: cAMP accumulation assay, HEK 293 cells expressing mouse A3AR; assay type: cell-based; details: forskolin 10 μM, 15 min, Ro 20-1724 20 μM
T4 sequence (Q61618 1-319): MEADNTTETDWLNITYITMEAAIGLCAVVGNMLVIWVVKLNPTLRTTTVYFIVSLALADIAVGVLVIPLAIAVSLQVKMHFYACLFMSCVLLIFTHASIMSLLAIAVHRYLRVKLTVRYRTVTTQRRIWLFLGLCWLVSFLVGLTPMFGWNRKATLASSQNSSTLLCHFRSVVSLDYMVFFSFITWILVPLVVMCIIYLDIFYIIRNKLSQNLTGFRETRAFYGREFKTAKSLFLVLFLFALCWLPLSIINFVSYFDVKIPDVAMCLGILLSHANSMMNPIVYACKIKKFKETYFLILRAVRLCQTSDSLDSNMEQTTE

mouse A2BAR = target: T5, mouse A2BAR (Mus musculus, UniProt Q60614); test: Competition binding of MRS5127 at mouse A2BAR; details: [^3H]MRS1754 2 nM, HEK 293 membranes
T5 sequence (Q60614 1-332): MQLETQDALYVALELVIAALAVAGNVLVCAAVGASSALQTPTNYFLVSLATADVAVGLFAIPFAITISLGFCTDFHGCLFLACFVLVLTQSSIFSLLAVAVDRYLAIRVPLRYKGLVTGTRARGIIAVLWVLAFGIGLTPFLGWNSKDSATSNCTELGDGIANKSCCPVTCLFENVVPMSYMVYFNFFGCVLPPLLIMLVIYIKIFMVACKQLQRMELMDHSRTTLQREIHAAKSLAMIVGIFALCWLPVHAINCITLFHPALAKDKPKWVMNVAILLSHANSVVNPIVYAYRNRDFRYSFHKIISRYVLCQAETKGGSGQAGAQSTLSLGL

hA3 = details: read-out: affinity; hA3 ref 25, 26; cited from earlier work
rabbit A3AR = target: T6, rabbit A3AR (Oryctolagus cuniculus, UniProt O02667); test: cAMP accumulation assay, HEK 293 cells expressing rabbit A3AR; assay type: cell-based; details: forskolin 10 μM, 15 min, Ro 20-1724 20 μM
T6 sequence (O02667 1-319): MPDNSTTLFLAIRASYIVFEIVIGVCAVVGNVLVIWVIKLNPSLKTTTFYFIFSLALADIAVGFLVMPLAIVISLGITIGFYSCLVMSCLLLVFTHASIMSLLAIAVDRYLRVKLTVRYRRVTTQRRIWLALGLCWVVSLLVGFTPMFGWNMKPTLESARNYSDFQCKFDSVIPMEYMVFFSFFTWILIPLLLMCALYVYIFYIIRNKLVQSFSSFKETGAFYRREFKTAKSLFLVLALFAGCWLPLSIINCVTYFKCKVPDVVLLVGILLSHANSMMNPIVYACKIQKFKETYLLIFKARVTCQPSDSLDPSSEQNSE

hA3AR [2] = details: CHO cell membranes expressing hA3AR ref 25; cited from earlier work

SMILES	Ki (human A3AR) [nM]	EC50 (dog A3AR) [nM]	efficacy in comparison to NECA (hA3AR [1]; cAMP accumulation, human receptors ref 26)	efficacy compared to the full agonist NECA (hA3AR [1]; cAMP, transfected cells ref 26) [%]	binding to mouse A2AAR (mouse A2AAR)	affinity for mA1AR lower compared to the mA3AR (mA1AR; mA1AR versus mA3AR)	Ki (mA1AR; read-out: affinity (Ki value), [^125I]I-AB-MECA 0.3 nM, HEK 293 membranes) [nM]	EC50 (mouse A3AR) [nM]	binding to mouse A2BAR (mouse A2BAR)	Ki (hA3) [nM]	EC50 (rabbit A3AR) [nM]	functional character by Schild analysis of [^35S]GTPγS binding (hA3AR [2])
CCCOC(=O)c1c(-c2ccccc2)nc(CC)c(C(=O)SCC)c1CCC [MRS1523, 5-propyl-2-ethyl-4-propyl-3-(ethylsulfanylcarbonyl)-6-phenylpyridine-5-carboxylate]	246 ± 66	–	–	–	–	–	–	–	–	–	–	–
O[C@@H]1[C@H](O)[C@@H]2C[C@@H]2[C@H]1n1cnc2c(NCc3cccc(I)c3)nc(Cl)nc21 [MRS5127, (1′R,2′R,3′S,4′R,5′S)-4′-[2-chloro-6-(3-iodobenzylamino)-purine]-2′,3′-O-dihydroxybicyclo-[3.1.0]hexane]	–	2.79 ± 0.41	roughly half efficacy	45	did not bind	~ 30 fold	140 ± 26	1.34 ± 0.07	did not bind	1.44 ± 0.6	1.53 ± 0.59	antagonist

— publication PMC2815200 (Biochemical pharmacology, 2009)
